The results in this text go back to article PMC8011931, “Identification, Structure–Activity Relationship, and Biological Characterization of 2,3,4,5-Tetrahydro-1H-pyrido[4,3-b]indoles as a Novel Class of CFTR Potentiators” (Journal of Medicinal Chemistry, 2020).

The subject of one series is HepG2 cells. Put plainly: HepG2 cell toxicity assay (CTG and MTT). It counts as cell-based. The following applies: at 20 μM, 24 h, CTG and MTT assays; percent of vehicle-treated controls. As for the experimental part: In order to assess a possible liver toxicity liability, the selected analogues were also tested in HepG2 cells at two concentrations (2.0 and 20 μM) for 24 h, along with a reference compound (rotenone). A reduction of cell viability to less than 80% was set as the threshold for estimation of cytotoxicity.[42]
To increase the detection of drug-induced mitochondrial effects in a preclinical cell-based assay, HepG2 hepatocellular carcinoma cells (ATCC HB-8065) were forced to rely on mitochondrial oxidative phosphorylation rather than glycolysis by substituting galactose (10 mM) for glucose (25 mM) in the growth media (DMEM, Life Technologies).
High-glucose media: high-glucose DMEM (Invitrogen 11995-065) containing 25 mM glucose, 1.0 mM sodium pyruvate, supplemented with 5 mM N-(2-hydroxyethyl)piperazine-N′-(2-ethanesulfonic acid) (HEPES), and 10% FBS. Galactose media: DMEM deprived of glucose (Invitrogen 11966-025), supplemented with 10 mM galactose, 2.0 mM glutamine (6 mM final), 5.0 mM HEPES, 10% FBS, and 1.0 mM sodium pyruvate.
For the cytotoxicity assay, cells were plated at 20,000 cells/well in 100 μL of cell culture media in 96-well plates and allowed to grow overnight. The cells were treated for 24 h with 2.0 or 20 μM of each compound. All compounds were dissolved in DMSO with a stock concentration of 4 mM. The first dilution step of compounds was prepared in DMSO (200× stock solutions), while the second dilution step was carried out in a complete cell culture medium (5% DMSO). Of this dilution, 10 μL were added to the wells of the 96-well plate, with a final DMSO concentration of 0.5%. Rotenone, a well-known mitochondrial inhibitor, was used as a reference compound. After treatment, cellular viability was assessed by using two different assays, run on independent plates: the CellTiter-Glo (CTG) Luminescent Cell Viability Assay (Promega), which determines the number of viable cells based on the quantitation of the ATP present, and the thiazolyl blue tetrazolium […] (MTT) dye (Aldrich), which is converted to water-insoluble MTT formazan crystals by mitochondrial dehydrogenases of living cells. Each experimental condition (i.e., control, reference, and compounds’ doses) has been tested in three technical replicates.
(In general: Tetrazolium dyes change colour on reduction, which living cells bring about.)

The nature of series [1]: Aqueous kinetic solubility assay. Format: physicochemical. The following applies: PBS, pH 7.4; n = 3. The method, then:
The aqueous kinetic solubility was determined from a 10 mM DMSO stock solution of test compound in PBS at pH 7.4. The study was performed by incubation of an aliquot of 10 mM DMSO stock solution in PBS (pH 7.4) at a target concentration of 250 μM (2.5% DMSO). The incubation was carried out under shaking at 25 °C for 24 h, followed by centrifugation at 21,100g for 30 min. The supernatant was further diluted (4:1) with CH3CN and the dissolved test compound was quantified by UV at 215 nm on a Waters ACQUITY UPLC/MS system consisting of an SQD mass spectrometer equipped with an electrospray ionization interface and a photodiode array detector. Electrospray ionization in the positive mode was used in the mass scan range of 100–500 Da. The PDA range was 210–400 nm. The analyses were run on an ACQUITY UPLC BEH C18 column (50 × 2.1 mm ID, particle size 1.7 μm) with a VanGuard BEH C18 precolumn (5 × 2.1 mm ID, particle size 1.7 μm) using 10 mM NH4OAc in H2O at pH 5 adjusted with AcOH (A) and 10 mM NH4OAc in CH3CN–H2O (95:5) at pH 5 (B) as the mobile phase.

Series [2] in a line: Liver microsomal stability, phase II (UDPGA), human. It counts as in vitro ADME. The following applies: for human LM_UDPGA parent compound remaining at the last time point (in parentheses): 4.6 μM, 60 min; for half-life at 4.6 μM: human, liver microsomes, pH 7.5, 0.1% DMSO, n ≥ 3, read-out: human LM_UDPGA t1/2. The method, then:
Phase II: 10 mM DMSO stock solution of the test compound was preincubated at 37 °C for 15 min with human liver microsomes added alamethicin in 0.1 M Tris–HCl buffer (pH 7.5) with 10% DMSO. The final concentration was 4.6 μM. After preincubation, the cofactors (UDPGA, D-saccharic acid lactone, and MgCl2 predissolved in 0.1 M Tris–HCl) were added to the incubation mixture and the incubation was continued at 37 °C for 1 h.
For both phase I and II studies: At each time point (0, 5, 15, 30, and 60 min), 30 μL of the incubation mixture was diluted with 200 μL of cold CH3CN spiked with 200 nM of an appropriate internal standard, followed by centrifugation at 3270g for 15 min. The supernatant was further diluted with H2O (1:1) for analysis. A reference incubation mixture (microsomes without cofactors) was prepared for each test compound and analyzed at t = 0 and 60 min in order to verify the compound’s stability in the matrix. The two time points were diluted as for the time points of the incubation mixture above. The supernatants were analyzed by LC/MS–MS on a Waters ACQUITY UPLC/MS TQD system consisting of a TQD (triple quadrupole detector) mass spectrometer equipped with an electrospray ionization interface and a photodiode array eλ detector. Electrospray ionization was applied in positive mode. Compound-dependent parameters as MRM transitions and collision energy were developed for each compound. The analyses were run on an ACQUITY UPLC BEH C18 (50 × 2.1 mm ID, particle size 1.7 μm) with a VanGuard BEH C18 precolumn (5 × 2.1 mm ID, particle size 1.7 μm) at 40 °C, using H2O + 0.1% HCOOH (A) and CH3CN + 0.1% HCOOH (B) as the mobile phase. The percentage of test compound remaining at each time point relative to t = 0 was calculated by the response factor on the basis of the internal standard peak area. The percentage of test compound versus time was plotted and fitted by GraphPad Prism (GraphPad Software, Version 5 for Windows, CA, USA, www.graphpad.com) to estimate the compound’s half-life (t1/2), which was reported as mean value along with the standard deviation (n = 3).

≈ marks a conversion by molar mass, not a printed value.

For the compound `COc1ccc2[nH]c3c(c2c1)CN(C(=O)c1cc(C(F)(F)F)[nH]n1)CC3` [Compound 3, (8-Methoxy-1,3,4,5-tetrahydropyrido[4,3-b]indol-2-yl)-[5-(trifluoromethyl)-1H-pyrazol-3-yl]methanone], the “HepG2 (% survival)” value with HepG2 cells is above 80%. Further, the solubility (kinetic) (commonly the concentration staying in solution when a stock, usually in DMSO, is diluted into the medium) at 24 h, 250 µM in series [1] worked out at 237 ± 11 µM (≈ 86.3 µg/mL).

In the case of `O=C(c1cc(C(F)(F)F)[nH]n1)N1CCc2[nH]c3c(F)cccc3c2C1` [Compound 20, (6-Fluoro-1,3,4,5-tetrahydro-2H-pyrido[4,3-b]indol-2-yl)-(5-(trifluoromethyl)-1H-pyrazol-3-yl)methanone], the “HepG2 (% survival)” value in the series on HepG2 cells is above 80%. For the same compound, in series [1], the kinetic solubility at 24 h, 250 µM came out at 9 ± 4 µM (≈ 3.17 µg/mL).

Take `COc1cc(F)c2[nH]c3c(c2c1)CN(C(=O)c1cc(C(F)(F)F)[nH]n1)CC3` [Compound 25, (6-Fluoro-8-methoxy-1,3,4,5-tetrahydro-2H-pyrido[4,3-b]indol-2-yl)-(5-(trifluoromethyl)-1H-pyrazol-3-yl)methanone]: the “HepG2 (% survival)” value with HepG2 cells was above 80%. Besides, the kinetic solubility at 24 h, 250 µM in series [1] is 2 ± 1 µM (≈ 0.765 µg/mL).

In the case of `O=C(c1cc(C(F)(F)F)[nH]n1)N1CCc2[nH]c3c(F)ccc(F)c3c2C1` [Compound 29, (6,9-Difluoro-1,3,4,5-tetrahydro-2H-pyrido[4,3-b]indol-2-yl)-(5-(trifluoromethyl)-1H-pyrazol-3-yl)methanone], the “HepG2 (% survival)” value with HepG2 cells is above 80%. Moreover, in series [1], the kinetic solubility at 24 h, 250 µM came out at 36 ± 5 µM (≈ 13.3 µg/mL).

With `Cc1ccc(F)c2[nH]c3c(c12)CN(C(=O)c1cc(C(F)(F)F)[nH]n1)CC3` [Compound 30, (6-Fluoro-9-methyl-1,3,4,5-tetrahydro-2H-pyrido[4,3-b]indol-2-yl)-(5-(trifluoromethyl)-1H-pyrazol-3-yl)methanone], in series [2], the “human LM_UDPGA parent compound remaining at the last time point (in parentheses)” value amounted to 75% and the half-life at 4.6 μM is above 1 h. In the series on HepG2 cells, the “HepG2 (% survival)” value is on record as above 80%. In series [1], this compound displayed a kinetic solubility at 24 h below 1 µM.

In the case of `Cc1ccc(F)c2[nH]c3c(c12)CN(C(=O)c1cc(C(F)(F)F)[nH]n1)[C@H](C)C3` [Compound 39, (R)-(6-Fluoro-3,9-dimethyl-1,3,4,5-tetrahydro-2H-pyrido[4,3-b]indol-2-yl)-(5-(trifluoromethyl)-1H-pyrazol-3-yl)methanone], in series [2], the “human LM_UDPGA parent compound remaining at the last time point (in parentheses)” value was 79% and the half-life at 4.6 μM is above 1 h. Further, in the series with HepG2 cells, the “HepG2 (% survival)” value is listed as above 80%. In series [1], this compound came in with a kinetic solubility at 24 h below 1 µM.
